Laboratory results taken from patent publication US20170327536A1, “NEUROTOXIC TARGET FOR AMYLOSPHEROID, METHOD AND MATERIAL FOR REDUCING THE NEUROTOXICITY OF AMYLOSPHEROID, AND USE THEREOF” (TAO Health Life Pharma Co., Ltd., priority 2011, published 2017).

Experiments:
[1] = test system: mature rat hippocampus-derived primary cultured neurons; assay: Inhibition effect of AAT peptides on ASPD apoptotic activity (neutralization); type: cell-based; conditions: 4 μM synthetic ASPD, 24 hours; for inhibition effect on ASPD apoptotic activity compared with AAT01: 0.14 μM peptide, FIG. 19
Experimental: Based on the fact that anti-ASPD antibodies bind to ASPD to inhibit interaction between ASPD and NAKα3 that is a target molecule to suppress death of neurons, a peptide having similar effect was searched. For this purpose, ASPD immobilized to a microtiter plate was screened through use of (commercially available) phage display library in which a library of random 12 amino acids was expressed on a virus surface, and a converged sequence was analyzed. […] A peptide having neutralization activity was named as an Anti-AD toxicity (AAT) peptide.
The apoptotic activity was measured 24 hours later and compared with that of a control to which the AAT peptide has not been administered, whereby the inhibition activity was calculated.

ASPD = ASPD (Homo sapiens, UniProt P05067); assay: Surface plasmon resonance (SPR), biotinylated AAT peptide on chip, ASPD as ligand; type: binding; conditions: peptide solid phase on chip
ASPD, sequence (P05067 672-713 limits assumed): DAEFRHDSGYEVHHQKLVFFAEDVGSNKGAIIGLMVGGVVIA
Source text: Biotin was bound to each C-terminal side of the above-mentioned AAT peptides 01 to […] and made into a solid phase on a chip, and a dissociation constant was obtained by surface plasmon resonance (SPR) using ASPD as a ligand.

[2] = molecular target: T1, 105 kDa band (Na+/K+-ATPase α3) (Rattus norvegicus, UniProt P06687); assay: Far-western blotting of cell extracts; type: binding; conditions: extracts of neurons and HEK293 cells; detection with haASD1 (ASPD) or 6E10 (Aβ monomer)
T1 construct: endogenous in cells; host or cells: rat hippocampus-derived primary cultured neurons (mature)
Experimental: Extracts were prepared with RadioImmunoPrecipitation Assay (RIPA) respectively from the rat hippocampus-derived primary cultured neurons (number of culture days shown in FIG. 4) and the HEK293 cells, and protein amounts of the extracts were determined. Then, predetermined amounts of the extracts were subjected to electrophoresis with SDS-PAGE and transcribed to a nitrocellulose membrane, and reacted with native ASPD or an Aβ monomer for a predetermined period of time. The binding of the native ASPD was detected with anti-ASPD antibodies haASD1, and the binding of the Aβ monomer was detected with 6E10 that was commercially available anti-Aβ monomer antibodies (far-western blotting).
Thus, the synthetic ASPD is considered to be equivalent to the native ASPD, and after that, analysis was carried out using the synthetic ASPD.

| Molecule | ka (ASPD) | kd (ASPD) | also measured |
| --- | --- | --- | --- |
| HFNWD (ASPD-interacting motif/peptide) [AAT04] | – | – | inhibition effect on ASPD apoptotic activity compared with AAT01 [1]: equal to or more than that of the AAT01 |
| HFNWDW (ASPD-interacting motif/peptide) [AAT05] | – | – | inhibition effect on ASPD apoptotic activity compared with AAT01 [1]: equal to or more than that of the AAT01 |
| HFNW (ASPD-interacting motif/peptide) [AAT06] | – | – | inhibition effect on ASPD apoptotic activity compared with AAT04 ([1]; 2.8 μM peptide, FIG. 20): equal to or higher than that of the AAT04 |
| CC(C)C[C@H](NC(=O)[C@H](CC(N)=O)NC(=O)[C@H](Cc1ccc(O)cc1)NC(=O)[C@H](Cc1c[nH]c2ccccc12)NC(=O)[C@H](CC(N)=O)NC(=O)[C@H](Cc1ccccc1)NC(=O)[C@@H](N)Cc1c[nH]cn1)C(=O)N[C@@H](Cc1c[nH]c2ccccc12)C(=O)N[C@@H](CCCNC(=N)N)C(=O)N[C@H](C(=O)N[C@@H](CCC(N)=O)C(=O)N[C@@H](Cc1ccc(O)cc1)C(=O)N[C@@H](CCCCNC(=O)CCCC[C@@H]1SC[C@@H]2NC(=O)N[C@@H]21)C(N)=O)C(C)C [C-terminal biotinylated AAT01] | 7.64 × 10^3 | 4.41 × 10^-4 | – |
| Aβ monomer: peptide cleaved from amyloid precursor protein (APP) with β- and γ-secretase | – | – | binding to 105 kDa band in far-western blotting [2]: did not bind to the band |
| CC(C)C[C@H](NC(=O)[C@@H](N)Cc1c[nH]cn1)C(=O)N[C@@H](CC(N)=O)C(=O)N[C@@H](Cc1c[nH]c2ccccc12)C(=O)N[C@@H](Cc1c[nH]c2ccccc12)C(=O)N[C@@H](Cc1c[nH]cn1)C(=O)N[C@@H](CO)C(=O)N[C@@H](Cc1c[nH]c2ccccc12)C(=O)N[C@@H](Cc1ccc(O)cc1)C(=O)N1CCC[C@H]1C(=O)N[C@@H](C)C(=O)N[C@@H](CCCNC(=N)N)C(=O)N[C@@H](CCCCNC(=O)CCCC[C@@H]1SC[C@@H]2NC(=O)N[C@@H]21)C(N)=O [C-terminal biotinylated AAT02] | 5.60 × 10^3 | 4.62 × 10^-4 | – |
| CC(C)C[C@H](NC(=O)[C@H](Cc1c[nH]c2ccccc12)NC(=O)[C@H](CC(N)=O)NC(=O)[C@H](CC(C)C)NC(=O)[C@@H](N)Cc1c[nH]cn1)C(=O)N[C@@H](CO)C(=O)N[C@@H](Cc1c[nH]c2ccccc12)C(=O)N[C@@H](Cc1ccccc1)C(=O)N1CCC[C@H]1C(=O)N[C@@H](CO)C(=O)N[C@@H](CCCNC(=N)N)C(=O)N[C@@H](Cc1c[nH]cn1)C(=O)N[C@@H](CCCCNC(=O)CCCC[C@@H]1SC[C@@H]2NC(=O)N[C@@H]21)C(N)=O [C-terminal biotinylated AAT03] | 4.96 × 10^3 | 4.39 × 10^-4 | – |
